Reference: the NIST ThermoML archive (doi:10.1016/j.jct.2012.05.010)
± gives the expanded uncertainty stated by the source.

Assay: refractive index (Na D-line) (dimensionless)
Conditions: 293.1 K; 101.33 kPa; Liquid; Standard Abbe refractometry

Structure (SMILES)	refractive index
CCCCn1cc[n+](C)c1.F[P-](F)(F)(F)(F)F [1-butyl-3-methylimidazolium hexafluorophosphate]	1.3803 ± 0.0005
CCCCCCCCCCCC [dodecane]	1.422 ± 0.0004
CCCc1ccccc1 [propylbenzene]	1.4915 ± 0.0004
CCCCCCCCCCCCCC [tetradecane]	1.4289 ± 0.0004
